Assay results from ChEMBL document CHEMBL4118109, “A combination of 19F NMR and surface plasmon resonance for site-specific hit selection and validation of fragment molecules that bind to the ATP-binding site of a kinase” (Bioorg Med Chem, 2018).
Active and inactive are the calls of the source. The rule behind the calls is not given here.

Legend:
[1] = target: T1, Mitogen-activated protein kinase 1 (Homo sapiens, UniProt P28482); experiment: Binding affinity to ATP-binding site of ERK2 (unknown origin) assessed as reduction in signal intensity by 19F NMR spectroscopy; design: concentration or dose not given beside the values
[2] = target: T1, Mitogen-activated protein kinase 1; experiment: Binding affinity to ATP-binding site of ERK2 (unknown origin) assessed as reduction in signal intensity in absence of competitor by 19F NMR spectroscopy; design: concentration or dose not given beside the values
[3] = target: T1, Mitogen-activated protein kinase 1; experiment: Binding affinity to ATP-binding site of ERK2 (unknown origin) assessed as reduction in signal intensity in presence of […] by competitive 19F NMR spectroscopy; design: concentration or dose not given beside the values
[4] = target: T1, Mitogen-activated protein kinase 1; experiment: Binding affinity to ATP-binding site of ERK2 (unknown origin) assessed as reduction in signal intensity in presence of L100919 by competitive 19F NMR spectroscopy; design: concentration or dose not given beside the values
[5] = target: T1, Mitogen-activated protein kinase 1; experiment: Binding affinity to ATP-binding site of ERK2 (unknown origin) by surface plasmon resonance method
[6] = target: T1, Mitogen-activated protein kinase 1; experiment: Binding affinity to ATP-binding site of ERK2 (unknown origin) assessed as reduction in signal intensity in presence of FR180204 at 1 mM by competitive surface plasmon resonance method; design: scale not given: the % may be the effect or the level left
[7] = target: T1, Mitogen-activated protein kinase 1; experiment: Binding affinity to ATP-binding site of ERK2 (unknown origin) assessed as reduction in signal intensity in presence of L100919 at 1 mM by competitive surface plasmon resonance method; design: scale not given: the % may be the effect or the level left
[8] = target: T1, Mitogen-activated protein kinase 1; experiment: Binding affinity to ATP-binding site of ERK2 (unknown origin) by isothermal titration calorimetry

T1 sequence (P28482 whole entry): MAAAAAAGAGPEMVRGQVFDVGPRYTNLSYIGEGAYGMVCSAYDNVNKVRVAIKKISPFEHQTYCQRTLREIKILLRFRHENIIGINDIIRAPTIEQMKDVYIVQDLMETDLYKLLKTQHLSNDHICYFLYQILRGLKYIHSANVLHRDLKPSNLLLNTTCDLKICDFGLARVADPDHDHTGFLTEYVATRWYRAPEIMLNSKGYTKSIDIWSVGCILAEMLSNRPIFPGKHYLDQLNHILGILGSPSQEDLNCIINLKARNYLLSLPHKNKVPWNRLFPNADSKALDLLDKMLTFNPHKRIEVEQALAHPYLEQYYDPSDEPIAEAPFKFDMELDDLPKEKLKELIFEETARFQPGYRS

Row | SMILES | Activity [1] | Activity [2] [%] | Activity [3] [%] | Activity [4] [%] | Kd [5] [mM] | Activity [6] [%] | Activity [7] [%] | Kd [8] [mM]
1 | N[C@H]1CC[C@H](N2Cc3cc(F)ccc3C2=O)CC1 | inactive |  |  |  |  |  |  | 
2 | Fc1ccc2[nH]cc(C3CCCNC3)c2c1 (centres undefined) | 10% | 20 | 9 | 9 | > 1 |  |  | 
3 | Fc1cccc2c1CC1(CCOCC1)CN2 | 29% | 20 | 14 | 16 |  |  |  | 
4 | NCc1cn(Cc2ccccc2C(F)(F)F)cn1 | inactive |  |  |  | > 1 |  |  | 
5 | Fc1ccc2c(CC3CCOCC3)c[nH]c2c1 | 36% | 24 | 22 | 23 | > 1 | 25 |  | 
6 | N[C@H]1CC[C@H](N2Cc3c(F)cccc3C2=O)CC1 | 41% | 9 |  |  | 0.495 | 15 | 12 | 
7 | CC(C)(C)OC(=O)N1CCC2(CC1)C(=O)Nc1ccc(F)cc12 | 39% | 45 | 13 | 15 |  |  |  | 
8 | CC(C)(C)OC(=O)N1CCC(CN)(Cc2cccc(C(F)(F)F)c2)CC1 | 26% | 9 |  |  | > 1 |  |  | 
9 | CC(C)(C)OC(=O)N[C@H]1CCN(c2ncccc2[N+](=O)[O-])C1 | 20% | 2 |  |  | > 1 |  |  | 
10 | O=C(O)c1ccc2nc(-c3ccccc3F)nn2c1 | 47% | 35 | 17 | 24 | > 1 | 14 | 12 | 
11 | O=C1c2ccc(F)cc2CN1C1CCNCC1 | 13% | 7 |  |  | > 1 |  |  | 
12 | NCc1cn(Cc2ccccc2F)cn1 | inactive |  |  |  |  |  |  | 
13 | Nc1c(F)cccc1N1CCCCC1 | 31% | 17 | 7 | 12 |  | 10 | 17 | 
14 | NC1CCN(c2cccc(F)c2[N+](=O)[O-])CC1 | 39% | 10 |  |  | > 1 |  |  | 
15 | Fc1ccc2[nH]cc(C3CCOCC3)c2c1 | 14% | 16 | 10 | 14 | > 1 |  | 10 | 
16 | COCCCNc1ccc(F)cc1[N+](=O)[O-] | 29% | 15 | 10 | 14 |  |  |  | 
17 | FC(F)(F)c1cnn2cc(Br)cnc12 | 33% | 22 | -4 | 5 |  |  |  | 
18 | O=C1c2ccc(F)cc2CN1[C@H]1CCCNC1 | 66% | 67 | 2 | 8 | > 1 |  |  | 
19 | Fc1cccc(-c2nnc3ccc(Br)cn23)c1 | 54% | 49 | 16 | 20 | > 1 | 12 |  | 
20 | CCOc1cc(N)cc(C(F)(F)F)c1 |  |  |  |  | > 1 |  | 17 | 
21 | Fc1ccc2[nH]cc(CC3CCOCC3)c2c1 | 28% | 30 | 19 | 20 | 0.929 |  |  | 0.41
22 | CC(C)(C)OC(=O)N1CCC(Cc2cccc(C(F)(F)F)c2)(C(=O)O)CC1 | 26% | 30 | 23 | 25 | > 1 |  |  | 
23 | FC(F)(F)c1ccnc(NC2CCNCC2)c1 | 11% | 9 |  |  | 0.989 | 20 |  | 
24 | Nc1cnc2c(C(F)(F)F)cnn2c1 | 33% | -12 |  |  |  | 23 | 19 | 
25 | Nc1cnc(Nc2ccc(C(F)(F)F)cc2)nc1 | 40% | 26 | 7 | 5 | > 1 | 14 |  | 
26 | Nc1ccc2nc(-c3ccc(F)cc3)nn2c1 | 43% | 26 | 15 | 24 | > 1 |  |  | 
27 | CC(C)(C)OC(=O)N1CCC(CN)(Cc2ccc(C(F)(F)F)cc2)CC1 | 32% | 0 |  |  |  |  |  | 
28 | O=C1c2cccc(F)c2CN1[C@H]1CCCNC1 | 32% | 22 | -1 | 8 | > 1 | 31 | 26 | 
